Laboratory results reported in US20250223276A1, “Substituted Pyrrolidinyl And Piperidinyl Compounds And Related Methods Of Treatment” (Alkermes, Inc., priority 2022, published 2025).

target: T1, human orexin-2 receptor (OX2R) (Homo sapiens, UniProt O43614); experiment: Human OX2R IP1 assay; assay type: cell-based; conditions: T-Rex CHO cells stably overexpressing human OX2R; IP1 (inositol monophosphate) accumulation, HTRF; 1 hr at 37 degrees C
T1 construct: expressed in transfected cells
T1 sequence (O43614 1-444): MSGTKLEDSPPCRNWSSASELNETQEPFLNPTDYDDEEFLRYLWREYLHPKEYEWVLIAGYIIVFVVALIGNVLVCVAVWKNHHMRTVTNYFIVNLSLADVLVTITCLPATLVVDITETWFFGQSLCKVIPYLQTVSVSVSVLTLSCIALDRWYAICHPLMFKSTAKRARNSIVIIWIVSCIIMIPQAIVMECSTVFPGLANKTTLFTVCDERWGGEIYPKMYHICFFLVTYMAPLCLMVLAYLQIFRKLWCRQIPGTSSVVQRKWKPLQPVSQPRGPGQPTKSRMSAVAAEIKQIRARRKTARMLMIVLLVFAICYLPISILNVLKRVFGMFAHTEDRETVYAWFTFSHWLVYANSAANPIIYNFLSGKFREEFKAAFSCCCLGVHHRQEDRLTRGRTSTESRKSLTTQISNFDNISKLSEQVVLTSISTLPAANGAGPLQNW
Method: T-Rex CHO cells stably overexpressing the human orexin-2 receptor (OX2R) are induced overnight with 1 μg/mL of doxycycline in a T225 flask. 24 hours post induction, cells are lifted with accutase and plated into a 384-well proxy plate at 30,000 cells/well. Cells are then treated with different test compounds in 1× stimulation buffer containing 10 mM Hepes, 1 mM CaCl2), 0.5 mM MgCl2, 4.2 mM KCl, 146 mM NaCl, 5.5 mM glucose, and 50 mM LiCl, pH 7.4, for 1 hr at 37 degrees C. Following incubation, the reaction is terminated by the addition of detection mix, which is composed of IP1-d2 and anti-IP1-cryptate diluted in lysis buffer as well as 1× stimulation buffer. The plates are allowed to incubate for 1 hour at room temperature and are then read in the En Vision® multimode plate reader, measuring inositol phosphate levels.
Cisbio IP1 is a cell-based functional assay quantifying the accumulation of inositol monophosphate (IP), a metabolite released as a result of orexin 2 receptor activation through the phospholipase C-Gq signaling pathway. This is a competitive immunoassay in which the IP1 produced by the cells upon receptor activation competes with the IP1 analog coupled to the d2 fluorophore (acceptor) for binding to an anti-IP1 monoclonal antibody labeled with Eu cryptate (donor). The measured HTRF-FRET based signal is inversely proportional to the IP1 concentration produced.
The EC50 values reported in Table 2 were obtained according to the human OX2R IP1 assay described above. Data are the mean EC50 values±S.E.M.

SMILES	EC50 [nM]
CN(C)S(=O)(=O)N[C@H]1CCN(c2cccnn2)C[C@H]1CO[C@H]1CC[C@@H](c2cccc(F)c2)CC1 [Compound 2]	< 100
CNS(=O)(=O)N[C@H]1CCN(c2cccnn2)C[C@H]1CO[C@H]1CC[C@@H](c2cccc(F)c2)CC1 [Compound 3]	< 100
CN(C)S(=O)(=O)N[C@H]1CCN(C(=O)C2(F)CCC2)C[C@H]1CO[C@H]1CC[C@@H](c2cccc(F)c2)CC1 [Compound 4]	< 100
CN(C)S(=O)(=O)N[C@H]1CCN(C(=O)[C@@H]2CCOC2)C[C@H]1CO[C@H]1CC[C@@H](c2cccc(F)c2)CC1 [Compound 5]	< 100
CS(=O)(=O)N[C@H]1CCN(C(=O)C2(F)CCC2)C[C@H]1CO[C@H]1CC[C@@H](c2cccc(F)c2)CC1 [Compound 6]	< 100
CS(=O)(=O)N[C@H]1CCN(C(=O)[C@H]2CCOC2)C[C@H]1CO[C@H]1CC[C@@H](c2cccc(F)c2)CC1 [Compound 7]	< 100
O=S(=O)(N[C@H]1CCN(c2cccnn2)C[C@H]1CO[C@H]1CC[C@@H](c2cccc(F)c2)CC1)N1CCC1 [Compound 8]	100 to 1000
CN(C1CC1)S(=O)(=O)N[C@H]1CCN(c2cccnn2)C[C@H]1CO[C@H]1CC[C@@H](c2cccc(F)c2)CC1 [Compound 9]	100 to 1000
O=S(=O)(N[C@H]1CCN(c2cccnn2)C[C@H]1CO[C@H]1CC[C@@H](c2cccc(F)c2)CC1)C1CC1 [Compound 10]	< 100
O=S(=O)(N[C@H]1CCN(c2cccnn2)C[C@H]1CO[C@H]1CC[C@@H](c2cccc(F)c2)CC1)C(F)F [Compound 11]	< 100
CN(C)S(=O)(=O)N[C@H]1CCN(C(=O)C2CCC(F)(F)C2)C[C@H]1CO[C@H]1CC[C@@H](c2cccc(F)c2)CC1 (stereo partly shown) [Compound 13]	> 1000
CCN(CC)S(=O)(=O)N[C@H]1CCN(c2cccnn2)C[C@H]1CO[C@H]1CC[C@@H](c2cccc(F)c2)CC1 [Compound 14]	> 1000
O=S(=O)(N[C@H]1CCN(c2cccnn2)C[C@H]1CO[C@H]1CC[C@@H](c2cccc(F)c2)CC1)N1CCOCC1 [Compound 15]	> 1000
COC(=O)N1CC[C@H](NS(=O)(=O)N(C)C)[C@H](CO[C@H]2CC[C@@H](c3cccc(F)c3)CC2)C1 [Compound 16]	> 1000
O=S(=O)(NC1CC1)N[C@H]1CCN(c2cccnn2)C[C@H]1CO[C@H]1CC[C@@H](c2cccc(F)c2)CC1 [Compound 17]	100 to 1000
O=S(=O)(N[C@H]1CCN(c2cccnn2)C[C@H]1CO[C@H]1CC[C@@H](c2cccc(F)c2)CC1)N1CC(F)C1 [Compound 18]	100 to 1000
CCS(=O)(=O)N[C@H]1CCN(c2cccnn2)C[C@H]1CO[C@H]1CC[C@@H](c2cccc(F)c2)CC1 [Compound 19]	< 100
O=S(=O)(N[C@H]1CCN(c2cccnn2)C[C@H]1CO[C@H]1CC[C@@H](c2cccc(F)c2)CC1)C1CCC1 [Compound 20]	> 1000
CC(C)S(=O)(=O)N[C@H]1CCN(c2cccnn2)C[C@H]1CO[C@H]1CC[C@@H](c2cccc(F)c2)CC1 [Compound 21]	< 100
O=S(=O)(N[C@H]1CCN(c2cccnn2)C[C@H]1CO[C@H]1CC[C@@H](c2cccc(F)c2)CC1)N1CC(C(F)(F)F)C1 [Compound 22]	> 1000
CC1CN(S(=O)(=O)N[C@H]2CCN(c3cccnn3)C[C@H]2CO[C@H]2CC[C@@H](c3cccc(F)c3)CC2)C1 [Compound 23]	> 1000
CN1CCN(S(=O)(=O)N[C@H]2CCN(c3cccnn3)C[C@H]2CO[C@H]2CC[C@@H](c3cccc(F)c3)CC2)CC1 [Compound 24]	> 1000
O=S(=O)(N[C@H]1CCN(c2cccnn2)C[C@H]1CO[C@H]1CC[C@@H](c2cccc(F)c2)CC1)N1CC(C(F)F)C1 [Compound 25]	> 1000
O=S(=O)(N[C@H]1CCN(c2cccnn2)C[C@H]1CO[C@H]1CC[C@@H](c2cccc(F)c2)CC1)N1CCCC1 [Compound 26]	> 1000
CN1CC2(C1)CN(S(=O)(=O)N[C@H]1CCN(c3cccnn3)C[C@H]1CO[C@H]1CC[C@@H](c3cccc(F)c3)CC1)C2 [Compound 27]	> 1000
O=S(=O)(N[C@H]1CCN(c2cccnn2)C[C@H]1CO[C@H]1CC[C@@H](c2cccc(F)c2)CC1)N1CC(CF)C1 [Compound 28]	> 1000

SMILES	EC50 [nM]
O=S(=O)(N[C@H]1CCN(c2cccnn2)C[C@H]1CO[C@H]1CC[C@@H](c2cccc(F)c2)CC1)N1CCC(F)(F)C1 [Compound 29]	> 1000
CN(C)C1CN(S(=O)(=O)N[C@H]2CCN(c3cccnn3)C[C@H]2CO[C@H]2CC[C@@H](c3cccc(F)c3)CC2)C1 [Compound 30]	> 1000
O=S(=O)(N[C@H]1CCN(c2cccnn2)C[C@H]1CO[C@H]1CC[C@@H](c2cccc(F)c2)CC1)N1CC(Cl)C1 [Compound 31]	> 1000
CN1CC(NS(=O)(=O)N[C@H]2CCN(c3cccnn3)C[C@H]2CO[C@H]2CC[C@@H](c3cccc(F)c3)CC2)C1 [Compound 33]	> 1000
O=S(=O)(N[C@H]1CCN(c2cccnn2)C[C@H]1CO[C@H]1CC[C@@H](c2cccc(F)c2)CC1)N1CC2(COC2)C1 [Compound 34]	> 1000
CN(C)S(=O)(=O)N[C@H]1CCN(C(=O)c2cnco2)C[C@H]1CO[C@H]1CC[C@@H](c2cccc(F)c2)CC1 [Compound 44]	< 100
CN(C)S(=O)(=O)N[C@H]1CCN(C(=O)c2cncs2)C[C@H]1CO[C@H]1CC[C@@H](c2cccc(F)c2)CC1 [Compound 45]	< 100
CN(C)S(=O)(=O)N[C@H]1CCN(C(=O)c2cncn2C)C[C@H]1CO[C@H]1CC[C@@H](c2cccc(F)c2)CC1 [Compound 46]	100 to 1000
CN(C)S(=O)(=O)N[C@H]1CCN(C(=O)C2(F)CC2)C[C@H]1CO[C@H]1CC[C@@H](c2cccc(F)c2)CC1 [Compound 47]	< 100
CN(C)S(=O)(=O)N[C@H]1CCN(C(=O)OCC(F)F)C[C@H]1CO[C@H]1CC[C@@H](c2cccc(F)c2)CC1 [Compound 48]	< 100
CN(C)S(=O)(=O)N[C@H]1CCN(C(=O)c2ccnn2C)C[C@H]1CO[C@H]1CC[C@@H](c2cccc(F)c2)CC1 [Compound 49]	> 1000
CC(C)OC(=O)N1CC[C@H](NS(=O)(=O)N(C)C)[C@H](CO[C@H]2CC[C@@H](c3cccc(F)c3)CC2)C1 [Compound 50]	100 to 1000
CN1CCCC1C(=O)N1CC[C@H](NS(=O)(=O)N(C)C)[C@H](CO[C@H]2CC[C@@H](c3cccc(F)c3)CC2)C1 (stereo partly shown) [Compound 51]	> 1000
CN(C)S(=O)(=O)N[C@H]1CCN(C(=O)C2CNC(=O)C2)C[C@H]1CO[C@H]1CC[C@@H](c2cccc(F)c2)CC1 (stereo partly shown) [Compound 52]	> 1000
CN(C)S(=O)(=O)N[C@H]1CCN(C(=O)[C@H]2C[C@@H](F)C2)C[C@H]1CO[C@H]1CC[C@@H](c2cccc(F)c2)CC1 [Compound 53]	< 100
CN(C)S(=O)(=O)N[C@H]1CCN(C(=O)[C@H]2C[C@H](F)C2)C[C@H]1CO[C@H]1CC[C@@H](c2cccc(F)c2)CC1 [Compound 54]	< 100
CN(C)S(=O)(=O)N[C@H]1CCN(C(=O)N2CCOCC2)C[C@H]1CO[C@H]1CC[C@@H](c2cccc(F)c2)CC1 [Compound 55]	< 100
CC(C)N(C)[C@H]1CCN(S(=O)(=O)N[C@H]2CCN(c3cccnn3)C[C@H]2CO[C@H]2CC[C@@H](c3cccc(F)c3)CC2)C1 [Compound 56]	> 1000
CC(C)N(C)[C@@H]1CCN(S(=O)(=O)N[C@H]2CCN(c3cccnn3)C[C@H]2CO[C@H]2CC[C@@H](c3cccc(F)c3)CC2)C1 [Compound 57]	> 1000
CN(C)S(=O)(=O)N[C@H]1CCN(C(=O)OCC2(F)CC2)C[C@H]1CO[C@H]1CC[C@@H](c2cccc(F)c2)CC1 [Compound 58]	> 1000
CN1CC(OC(=O)N2CC[C@H](NS(=O)(=O)N(C)C)[C@H](CO[C@H]3CC[C@@H](c4cccc(F)c4)CC3)C2)C1 [Compound 59]	> 1000
CN(C)S(=O)(=O)N[C@H]1CCN(C(=O)OC2CC2)C[C@H]1CO[C@H]1CC[C@@H](c2cccc(F)c2)CC1 [Compound 60]	> 1000
CN(C)S(=O)(=O)N[C@H]1CCN(C(=O)N2CCC(F)(F)C2)C[C@H]1CO[C@H]1CC[C@@H](c2cccc(F)c2)CC1 [Compound 61]	< 100
CN(C)S(=O)(=O)N[C@H]1CCN(C(=O)N2CC(F)(F)C2)C[C@H]1CO[C@H]1CC[C@@H](c2cccc(F)c2)CC1 [Compound 62]	< 100
COCCN(C)S(=O)(=O)N[C@H]1CCN(c2cccnn2)C[C@H]1CO[C@H]1CC[C@@H](c2cccc(F)c2)CC1 [Compound 63]	> 1000
CN(CCF)S(=O)(=O)N[C@H]1CCN(c2cccnn2)C[C@H]1CO[C@H]1CC[C@@H](c2cccc(F)c2)CC1 [Compound 64]	> 1000
